We go through 16 compounds from patent publication US7919625B2, “4-anilino-3-quinolinecarbonitriles for the treatment of chronic myelogenous leukemia (CML)” (Wyeth LLC, priority 2003, dated 2011).

One series has as its system K562 cells. Briefly: Inhibition of CML cell proliferation, K562. Format: cell-based. The settings on record: Homo sapiens. The method, then: (§1) • A. Inhibition of v-Abl-dependent proliferation. Rat 2 cells infected with Abl-murine leukemia virus were grown and treated as described for the Src cell assay. All measurements were identical except for the cell type that Cell-Titer Glo (Promega) was used to monitor relative cell number. In this case, the reagent was used as recommended by the manufacturer and luminescence was measured on a Wallac Victor plate reader. • B. Inhibition of CML cell proliferation. KU812 and K562 cells were grown in RPMI1640 medium supplemented with 10% fetal calf serum and glutamine with 50 μg/ml gentamicin. Cells were plated at 1000-2000 cells per well on Day 0. On Day 1, compound was added such that the final DMSO concentration was no greater than 0.1%. On Day 4, Cell-Titer Glo was added according to manufacturer specifications and luminescence was determined on a Wallac Victor plate reader.

Series [1] has as its system Rat 2 cells infected with Abl-murine leukemia virus. The series is described as follows: Inhibition of v-Abl-dependent proliferation. Format: cell-based. The note with it: Rat2. The method, then:
Ultra-low cluster plates (Corning Costar, Acton, Mass.) are seeded with 10,000 cells per well on day 1. Alternatively, Ultra-low cluster plates (Costar 3474) treated with Sigmacote (Sigma, St. Louis, Mo.), rinsed with 70% ethanol, after drying in the hood, are seeded with 5000 cells.
Alternatively relative cell numbers were determined by the CellTiter-Glo™ (Promega) method. All procedures were identical except that cell number was reduced to 1000 cells/well and CellTiter-Glo reagent was added instead of MTS reagent, with luminescence as the readout.
as §1

A further series has as its system K562 xenografts. The series is described as follows: K562 xenografts in nude mice, tumor-free survival. Format: in vivo. The source says:
Nude mice with K562 xenografts were examined on days 11, 22, 36, and 43. Data is presented as a ratio of animals lacking detectable tumors relative to the number of animals per group. K562 tumors imbedded in Matrigel were staged in nude mice until tumors reached 200-300 mm^3.

In the next series the test system is KU812 cells. Briefly: Inhibition of CML cell proliferation, KU812. Format: cell-based. The settings on record: Homo sapiens. How it is done:
as §1

Series [2] addresses T1, Src (Homo sapiens, UniProt P12931). The series is described as follows: Src kinase assay, ELISA format.
Another series has as its target T2, c-Abl (Homo sapiens, UniProt P00519).
T2 construct: purchased Panvera P3049
Briefly: Homogeneous solution-based Abl kinase assay (Lance). Format: biochemical. The settings on record: read-out: c-Abl Enzyme IC50.

Series [3] addresses T1, Src. Briefly: Src kinase assay, homogeneous solution-based (Lance format). The settings on record: read-out: Src enzyme IC50. Set-up: purchased Upstate Biotechnologies, Lake Placid, N.Y. Format: biochemical.
Where [4] appears, read: read-out: Src enzyme IC50, ELISA format.

T1 sequence (P12931 whole entry): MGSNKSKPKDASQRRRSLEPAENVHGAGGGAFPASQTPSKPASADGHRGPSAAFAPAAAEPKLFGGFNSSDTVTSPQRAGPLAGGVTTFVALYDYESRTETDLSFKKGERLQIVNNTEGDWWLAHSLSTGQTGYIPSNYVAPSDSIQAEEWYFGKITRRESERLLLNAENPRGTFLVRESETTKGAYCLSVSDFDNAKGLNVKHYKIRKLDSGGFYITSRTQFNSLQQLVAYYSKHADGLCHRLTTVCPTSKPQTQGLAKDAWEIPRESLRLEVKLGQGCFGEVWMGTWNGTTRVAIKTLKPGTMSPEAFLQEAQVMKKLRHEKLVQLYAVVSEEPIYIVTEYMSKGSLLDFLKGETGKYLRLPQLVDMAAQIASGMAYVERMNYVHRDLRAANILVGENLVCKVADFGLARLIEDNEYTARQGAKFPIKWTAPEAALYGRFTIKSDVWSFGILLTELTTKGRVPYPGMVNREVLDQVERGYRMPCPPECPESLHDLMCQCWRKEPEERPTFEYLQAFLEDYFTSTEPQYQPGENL
T2 sequence (P00519 whole entry): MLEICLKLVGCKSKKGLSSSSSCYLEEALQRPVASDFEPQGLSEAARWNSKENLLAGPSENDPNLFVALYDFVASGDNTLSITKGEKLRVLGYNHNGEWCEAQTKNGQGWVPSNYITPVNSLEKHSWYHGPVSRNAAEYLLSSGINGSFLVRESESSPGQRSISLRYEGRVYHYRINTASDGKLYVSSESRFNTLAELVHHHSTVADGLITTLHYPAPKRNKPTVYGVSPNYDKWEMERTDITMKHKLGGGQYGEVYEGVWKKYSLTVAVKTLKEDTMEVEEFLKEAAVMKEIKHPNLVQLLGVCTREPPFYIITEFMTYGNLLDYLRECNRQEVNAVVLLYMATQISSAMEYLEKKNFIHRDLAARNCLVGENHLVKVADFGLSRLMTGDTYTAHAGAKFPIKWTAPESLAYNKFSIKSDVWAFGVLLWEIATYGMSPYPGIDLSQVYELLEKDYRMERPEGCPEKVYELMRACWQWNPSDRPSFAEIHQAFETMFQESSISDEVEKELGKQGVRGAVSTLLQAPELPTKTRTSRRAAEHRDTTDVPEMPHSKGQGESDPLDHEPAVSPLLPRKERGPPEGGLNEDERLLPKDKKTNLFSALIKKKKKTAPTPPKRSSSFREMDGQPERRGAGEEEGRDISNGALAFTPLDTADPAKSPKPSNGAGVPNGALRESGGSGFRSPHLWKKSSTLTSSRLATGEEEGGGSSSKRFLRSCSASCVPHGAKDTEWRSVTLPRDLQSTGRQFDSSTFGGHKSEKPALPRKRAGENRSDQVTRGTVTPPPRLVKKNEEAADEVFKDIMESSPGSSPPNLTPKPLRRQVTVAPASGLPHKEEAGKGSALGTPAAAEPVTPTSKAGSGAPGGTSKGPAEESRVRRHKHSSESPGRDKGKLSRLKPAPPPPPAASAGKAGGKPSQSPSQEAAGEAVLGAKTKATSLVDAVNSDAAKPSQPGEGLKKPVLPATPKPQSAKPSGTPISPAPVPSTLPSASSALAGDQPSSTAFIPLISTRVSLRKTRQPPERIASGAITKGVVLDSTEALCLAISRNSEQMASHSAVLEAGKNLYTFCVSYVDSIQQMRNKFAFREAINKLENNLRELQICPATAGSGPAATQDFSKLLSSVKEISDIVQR

Regarding `COc1cc(Nc2c(C#N)cnc3cc(OCCCN4CCN(C)CC4)c(OC)cc23)c(Cl)cc1Cl` [Example 1, 4-[(2,4-Dichloro-5-methoxyphenyl)amino]-6-methoxy-7-[3-(4-methyl-1-piperazinyl)propoxy]-3-quinolinecarbonitrile], the IC50 in the series on K562 cells stood at 20 nM; in series [1], 76 nM; with KU812 cells, 5 nM. In addition, the “Tumor-free survival (animals lacking detectable tumors / animals per group)” value in the series on K562 xenografts (50 mg/kg p.o. once a day for 5 days, day 11) is on record as 6/8; in the series on K562 xenografts (50 mg/kg p.o. once a day for 5 days, day 22), 5/8; with K562 xenografts (50 mg/kg p.o. once a day for 5 days, day 36), 4/8; with K562 xenografts (50 mg/kg p.o. once a day for 5 days, day 43), 4/8; in the series on K562 xenografts (75 mg/kg p.o. once a day for 5 days, day 11), 7/8; with K562 xenografts (75 mg/kg p.o. once a day for 5 days, day 22), 6/8. For the same compound, the “Tumor-free survival (animals lacking detectable tumors / animals per group)” value is 6/8 in the series with K562 xenografts (75 mg/kg p.o. once a day for 5 days, day 36); 6/8 in the series on K562 xenografts (75 mg/kg p.o. once a day for 5 days, day 43); 8/8 in the series with K562 xenografts (100 mg/kg p.o. once a day for 5 days, day 11); 7/8 with K562 xenografts (100 mg/kg p.o. once a day for 5 days, day 22); 7/8 in the series with K562 xenografts (100 mg/kg p.o. once a day for 5 days, day 36); 7/8 in the series with K562 xenografts (100 mg/kg p.o. once a day for 5 days, day 43). Also, the “Tumor-free survival (animals lacking detectable tumors / animals per group)” value in the series on K562 xenografts (150 mg/kg p.o. once a day for 5 days, day 11) was 8/8; in the series on K562 xenografts (150 mg/kg p.o. once a day for 5 days, day 22) it was 8/8; in the series with K562 xenografts (150 mg/kg p.o. once a day for 5 days, day 36), 8/8; with K562 xenografts (150 mg/kg p.o. once a day for 5 days, day 43), 8/8.

Turning to `CCN1CCN(CCOc2cc3ncc(C#N)c(Nc4cc(OC)c(Cl)cc4Cl)c3cc2OC)CC1` [Example 4, 4-[(2,4-Dichloro-5-methoxyphenyl)amino]-7-[2-(4-ethyl-1-piperazinyl)ethoxy]-6-methoxy-3-quinolinecarbonitrile], the melting point lay within 101 to 105 °C.

In the case of `COc1cc(Nc2c(C#N)cnc3cc(OCCCC4CCN(C)CC4)c(OC)cc23)c(Cl)cc1Cl` [Example 7, 4-[(2,4-Dichloro-5-methoxyphenyl)amino]-6-methoxy-7-[3-(1-methylpiperidin-4-yl)propoxy]quinoline-3-carbonitrile], the concentration for half-maximal inhibition (IC50) with K562 cells worked out at 18 nM; in series [1] it was 185 nM; in the series with KU812 cells, 5.8 nM.

In the case of `CCOc1cc2c(Nc3cc(OC)c(Cl)cc3Cl)c(C#N)cnc2cc1OCCCN1CCN(C)CC1` [Example 9, 4-[(2,4-Dichloro-5-methoxyphenyl)amino]-6-ethoxy-7-[3-(4-methylpiperazin-1-yl)propoxy]quinoline-3-carbonitrile], the melting point is 137 to 138 °C. In addition, on Src [2], the IC50 came out at 1.2 nM.

With `CCOc1cc2c(Nc3cc(OC)c(Cl)cc3Cl)c(C#N)cnc2cc1OCCC1CCN(C)CC1` [Example 14, 4-[(2,4-Dichloro-5-methoxyphenyl)amino]-6-ethoxy-7-[2-(1-methylpiperidin-4-yl)ethoxy]quinoline-3-carbonitrile], the melting point lay within 174 to 176 °C.

For `CCN1CCN(CCCOc2cc3ncc(C#N)c(Nc4cc(OC)c(Cl)cc4Cl)c3cc2OC)CC1` [Example 2, 4-[(2,4-Dichloro-5-methoxyphenyl)amino]-7-[3-(4-ethyl-1-piperazinyl)propoxy]-6-methoxy-3-quinolinecarbonitrile], the IC50 on Src [2] (setting [4]) was 0.77 nM.

`CCN1CCC(COc2cc3ncc(C#N)c(Nc4cc(OC)c(Cl)cc4Cl)c3cc2OC)CC1` [Example 8, 4-[(2,4-Dichloro-5-methoxyphenyl)amino]-7-[(1-ethylpiperidin-4-yl)methoxy]-6-methoxyquinoline-3-carbonitrile] came in with a melting point of 192 to 195 °C.

As for `COc1cc(Nc2c(C#N)cnc3cc(OCC4CCN(C)CC4)c(OC)cc23)c(Cl)cc1Cl` [Example 5, 4-[(2,4-Dichloro-5-methoxyphenyl)amino]-6-methoxy-7-[(1-methylpiperidin-4-yl)methoxy]-3-quinolinecarbonitrile], the IC50 in the series on K562 cells was determined as 39 nM; in series [1], 617 nM; at c-Abl, 2.9 nM; in the series with KU812 cells, 13.4 nM.

In turn, `CCOc1cc2c(Nc3cc(OC)c(Cl)cc3Cl)c(C#N)cnc2cc1OCC1CCN(C)CC1` [Example 10, 4-[(2,4-Dichloro-5-methoxyphenyl)amino]-6-ethoxy-7-[(1-methylpiperidin-4-yl)methoxy]quinoline-3-carbonitrile] showed a melting point of 182 to 186 °C.

Take `CCOc1cc2c(Nc3cc(OC)c(Cl)cc3Cl)c(C#N)cnc2cc1OCCCC1CCN(C)CC1` [Example 12, 4-[(2,4-Dichloro-5-methoxyphenyl)amino]-6-ethoxy-7-[3-(1-methylpiperidin-4-yl)propoxy]quinoline-3-carbonitrile]: the melting point is 148 to 151 °C.

As for `CCCN1CCN(CCCOc2cc3ncc(C#N)c(Nc4cc(OC)c(Cl)cc4Cl)c3cc2OC)CC1` [Example 15, 4-[(2,4-Dichloro-5-methoxyphenyl)amino]-6-methoxy-7-[3-(4-propyl-1-piperazinyl)propoxy]-3-quinolinecarbonitrile], on Src [2] (setting [4]), the IC50 was determined as 1.1 nM.

`CCOc1cc2c(Nc3cc(OC)c(Cl)cc3Cl)c(C#N)cnc2cc1OCCN1CCN(C)CC1` [Example 13, 4-[(2,4-Dichloro-5-methoxyphenyl)amino]-6-ethoxy-7-[2-(4-methyl-1-piperazinyl)ethoxy]quinoline-3-carbonitrile] registered a melting point of 141 to 143 °C.

As for `COc1cc(Nc2c(C#N)cnc3cc(OCCC4CCN(C)CC4)c(OC)cc23)c(Cl)cc1Cl` [Example 6, 4-[(2,4-Dichloro-5-methoxyphenyl)amino]-6-methoxy-7-[2-(1-methylpiperidin-4-yl)ethoxy]-3-quinolinecarbonitrile], the IC50 in the series on K562 cells was 41 nM; in series [1], 458 nM; at c-Abl, 2.9 nM; in the series on KU812 cells, 14 nM.

Take `COc1cc(Nc2c(C#N)cnc3cc(OCCN4CCN(C)CC4)c(OC)cc23)c(Cl)cc1Cl` [Example 3, 4-[(2,4-Dichloro-5-methoxyphenyl)amino]-6-methoxy-7-[2-(4-methyl-1-piperazinyl)ethoxy]-3-quinolinecarbonitrile]: the melting point is 165 to 167 °C. Further, the midpoint of inhibition in the series on K562 cells, the IC50, lay at 48 nM. This compound had an IC50 in series [1] of 440 nM.

In turn, `CCOc1cc2c(Nc3cc(OC)c(Cl)cc3Cl)c(C#N)cnc2cc1OCCCN1CCN(CC)CC1` [Example 11, 4-[(2,4-Dichloro-5-methoxyphenyl)amino]-6-ethoxy-7-[3-(4-ethylpiperazin-1-yl)propoxy]quinoline-3-carbonitrile] had a melting point of 127 to 130 °C.

`CCOc1cc(Nc2c(C#N)cnc3cc(OCC4CCN(C)CC4)c(OC)cc23)c(Cl)cc1Cl` [Example 22, 4-[(2,4-dichloro-5-ethoxyphenyl)amino]-6-methoxy-7-[(1-methylpiperidin-4-yl)methoxy]quinoline-3-carbonitrile]: the IC50 at Src [3] was determined as 230 nM.
